Numbers after ± are expanded uncertainties.
Conditions: Liquid, Vibrating tube method

C=CCCCC [hex-1-ene]
Conditions	mass density [kg/m3]
323.19 K, 55000 kPa	699.3 ± 2.2
323.2 K, 15000 kPa	663.4 ± 2
323.2 K, 20000 kPa	668.8 ± 2.1
323.2 K, 30000 kPa	678.6 ± 2.1
323.2 K, 35000 kPa	683.4 ± 2.1
323.2 K, 40000 kPa	687.3 ± 2.1
323.2 K, 70000 kPa	709.4 ± 2.2
323.2 K, 80000 kPa	715.7 ± 2.3
323.2 K, 90000 kPa	721.6 ± 2.3
323.2 K, 100000 kPa	727.2 ± 2.3
323.21 K, 25000 kPa	673.8 ± 2.1
323.21 K, 45000 kPa	691.8 ± 2.1
333.08 K, 500 kPa	635.3 ± 2
333.08 K, 1000 kPa	636 ± 2
333.08 K, 3000 kPa	639.1 ± 2
333.08 K, 5000 kPa	642 ± 2
333.08 K, 10000 kPa	648.8 ± 2
333.09 K, 15000 kPa	655 ± 2
333.09 K, 20000 kPa	660.8 ± 2.1
333.09 K, 25000 kPa	666.1 ± 2.1
333.09 K, 30000 kPa	671.1 ± 2.1
333.09 K, 35000 kPa	676.4 ± 2.1
333.09 K, 40000 kPa	680.2 ± 2.1
333.09 K, 45000 kPa	685.1 ± 2.1
333.09 K, 50000 kPa	688.5 ± 2.1
333.09 K, 55000 kPa	693 ± 2.2
333.09 K, 60000 kPa	696.1 ± 2.2
333.09 K, 70000 kPa	703.3 ± 2.2
333.09 K, 80000 kPa	709.8 ± 2.3
333.09 K, 90000 kPa	715.9 ± 2.3
333.09 K, 100000 kPa	721.7 ± 2.3
342.96 K, 500 kPa	625.6 ± 2
342.96 K, 1000 kPa	626.4 ± 2
342.97 K, 3000 kPa	629.8 ± 2
342.97 K, 5000 kPa	633 ± 2
342.97 K, 10000 kPa	640.3 ± 2
342.97 K, 15000 kPa	647 ± 2
342.97 K, 20000 kPa	653.2 ± 2.1
342.97 K, 25000 kPa	658.8 ± 2.1
342.97 K, 30000 kPa	664.1 ± 2.1
342.97 K, 35000 kPa	669.6 ± 2.1
342.97 K, 40000 kPa	673.8 ± 2.1
342.97 K, 45000 kPa	678.8 ± 2.1
342.97 K, 50000 kPa	682.3 ± 2.2
342.97 K, 55000 kPa	687 ± 2.2
342.97 K, 60000 kPa	690.4 ± 2.2
342.97 K, 70000 kPa	697.6 ± 2.2
342.97 K, 80000 kPa	704.3 ± 2.3
342.97 K, 90000 kPa	710.7 ± 2.3
342.97 K, 100000 kPa	716.6 ± 2.3
352.85 K, 500 kPa	615.7 ± 2
352.85 K, 1000 kPa	617 ± 2
352.85 K, 3000 kPa	620.7 ± 2
352.85 K, 5000 kPa	624.2 ± 2
352.85 K, 15000 kPa	639.4 ± 2
352.86 K, 10000 kPa	632.2 ± 2
352.86 K, 20000 kPa	645.7 ± 2.1
352.86 K, 25000 kPa	651.7 ± 2.1
352.86 K, 30000 kPa	657.4 ± 2.1
352.86 K, 35000 kPa	662.8 ± 2.1
352.86 K, 40000 kPa	667.4 ± 2.1
352.86 K, 45000 kPa	672.4 ± 2.1
352.86 K, 50000 kPa	676.6 ± 2.2
352.86 K, 55000 kPa	680.9 ± 2.2
352.86 K, 60000 kPa	684.8 ± 2.2
352.86 K, 70000 kPa	692.4 ± 2.2
352.86 K, 80000 kPa	699.4 ± 2.3
352.86 K, 90000 kPa	705.9 ± 2.3
352.86 K, 100000 kPa	712 ± 2.4
362.7 K, 500 kPa	604.1 ± 2
362.7 K, 1000 kPa	605.5 ± 2
362.7 K, 100000 kPa	705.7 ± 2.4
362.71 K, 3000 kPa	609.5 ± 2
362.71 K, 5000 kPa	613.3 ± 2
362.71 K, 10000 kPa	622 ± 2
362.71 K, 15000 kPa	629.7 ± 2
362.71 K, 20000 kPa	636.7 ± 2.1
362.71 K, 25000 kPa	643 ± 2.1
362.71 K, 30000 kPa	648.9 ± 2.1
362.71 K, 35000 kPa	654.7 ± 2.1
362.71 K, 40000 kPa	659.6 ± 2.1
362.71 K, 45000 kPa	664.8 ± 2.1
362.71 K, 50000 kPa	669 ± 2.2
362.71 K, 55000 kPa	673.7 ± 2.2
362.71 K, 60000 kPa	677.6 ± 2.2
362.71 K, 70000 kPa	685.4 ± 2.2
362.71 K, 80000 kPa	692.6 ± 2.3
362.71 K, 90000 kPa	699.3 ± 2.3
